This passage reports CC50 and log reduction results from paper PMC12621019, “Restructuring Antiviral Quinazolinone Frameworks to Derive and Optimize Inhibitors of Chikungunya Virus” (ACS Medicinal Chemistry Letters, 2025).

Bounds are passed on as bounds.

Data set [1] in a line: Cytotoxicity assay (CellTiter Glo) in NHDF cells. The note with it: human, CC50, NHDF cells, maximum 40 μM. On the technique in general: In ATP-based viability assays light output follows the ATP content of the culture.
Data set [2] has as its system CHIKV (strain 181/25mKate). The data set can be described thus: microbe, parasite or virus in culture. Type of data set: cell-based. The note with it: Chikungunya virus, NHDF, 72 h, read-out: titer redn, log.

By CC50 is commonly meant the concentration giving 50% cytotoxicity. Read a high CC50 as better tolerance by the cells. On to `COc1c(F)cc(-n2c(-c3ccccn3)nc3cc(N4CCN(C(C)C)CC4)c(Cl)cc3c2=O)cc1F` [1ac], for which the 50% cytotoxic concentration (CC50) at 72 h in data set [1] was above 40 µM. The log reduction at 10 µM in data set [2] came out at 0.
`COc1c(F)cc(-n2c(-c3cccnc3)nc3cc(N4CCN(C(C)C)CC4)c(Cl)cc3c2=O)cc1F` [1ad] gave a CC50 at 72 h in data set [1] above 40 µM. Further, the log reduction at 10 µM in data set [2] was 0.
The like results for `COc1c(F)cc(-n2c(C3CCNCC3)nc3cc(N4CCN(C(C)C)CC4)c(Cl)cc3c2=O)cc1F` [1i] were, in that order, 29.1 µM and 0.95.
In the case of `COc1c(F)cc(-n2c([C@H]3CCCN3)nc3cc(N4CCN(C)CC4)c(F)cc3c2=O)cc1F` [(R)-1a], in data set [1], the CC50 at 72 h was above 40 µM. The log reduction at 10 µM in data set [2] turned out to be 0.1.
The like results for `COc1c(F)cc(-n2c([C@@H]3CCCN(c4ccccc4)C3)nc3cc(N4CCN(C(C)C)CC4)c(Cl)cc3c2=O)cc1F` [(R)-1aa] were, in that order, above 40 µM and 0.
Molecule `COc1c(F)cc(-n2c([C@@H]3CCCNC3)nc3ccc(Cl)cc3c2=O)cc1F` [(R)-1ab] showed a CC50 at 72 h in data set [1] above 40 µM. The log reduction at 10 µM in data set [2] came to 0.
The like results for `COc1c(F)cc(-n2c([C@H]3CCCN3)nc3cc(N4CCN(C(C)C)CC4)c(F)cc3c2=O)cc1F` [(R)-1b] were, in that order, above 40 µM and 1.3.
As to `COc1c(F)cc(-n2c([C@H]3CCCN3)nc3cc(N4CCN(C)CC4)c(Cl)cc3c2=O)cc1F` [(R)-1c], the CC50 at 72 h in data set [1] was above 40 µM. Moreover, the log reduction at 10 µM in data set [2] came out at 0.5.
`COc1c(F)cc(-n2c([C@H]3CCCN3)nc3cc(N4CCN(C(C)C)CC4)c(Cl)cc3c2=O)cc1F` [(R)-1d] gave a CC50 at 72 h in data set [1] of 19 µM. Moreover, in data set [2], the log reduction at 10 µM was 2.3.
As for `COc1c(F)cc(-n2c([C@H]3CCCN3)nc3cc(N4CCNCC4)c(Cl)cc3c2=O)cc1F` [(R)-1e], the midpoint of cytotoxicity in data set [1], the CC50 at 72 h, lay at 24.9 µM. For the same molecule, the log reduction at 10 µM in data set [2] came to 2.1.
As to `COc1c(F)cc(-n2c([C@H]3CCN3)nc3cc(N4CCN(C(C)C)CC4)c(Cl)cc3c2=O)cc1F` [(R)-1f], the CC50 at 72 h in data set [1] was above 40 µM. Besides, the log reduction at 10 µM in data set [2] came out at 0.1.
The like results for `COc1c(F)cc(-n2c([C@@H]3CCCNC3)nc3cc(N4CCN(C(C)C)CC4)c(Cl)cc3c2=O)cc1F` [(R)-1g] were, in that order, 16.2 µM and 2.3.
The like results for `COc1c(F)cc(-n2c([C@@H]3CCCNC3)nc3cc(N4CCN(C(C)(C)C)CC4)c(Cl)cc3c2=O)cc1F` [(R)-1j] were, in that order, 17.1 µM and 1.1.
For `COc1c(F)cc(-n2c([C@@H]3CCCNC3)nc3cc(N4CCN(c5ccccc5)CC4)c(Cl)cc3c2=O)cc1F` [(R)-1k] the same measures were 11.3 µM and above 4.
Molecule `COc1c(F)cc(-n2c([C@@H]3CCCNC3)nc3cc(N4CCN(C5CCN(C)CC5)CC4)c(Cl)cc3c2=O)cc1F` [(R)-1l] yielded a CC50 at 72 h in data set [1] of 11.6 µM. Further, the log reduction at 10 µM in data set [2] amounted to 2.8.
`COc1c(F)cc(-n2c([C@@H]3CCCNC3)nc3cc(N4CCN(C)CC4)c(Cl)cc3c2=O)cc1F` [(R)-1m]: the CC50 at 72 h in data set [1] was 23.3 µM. For the same molecule, in data set [2], the log reduction at 10 µM worked out at 2.2.
In the case of `COc1c(F)cc(-n2c([C@@H]3CCCNC3)nc3cc(N4CCNCC4)c(Cl)cc3c2=O)cc1F` [(R)-1n], half-maximal cytotoxicity in data set [1] (CC50 at 72 h) was put at 16.5 µM. In addition, in data set [2], the log reduction at 10 µM amounted to 0.7.
`COc1c(F)cc(-n2c([C@@H]3CCCNC3)nc3cc(N4CCC(N5CCOCC5)CC4)c(Cl)cc3c2=O)cc1F` [(R)-1o] returned a CC50 at 72 h in data set [1] of 20.6 µM. In addition, the log reduction at 10 µM in data set [2] stood at 1.1.
In the case of `COc1c(F)cc(-n2c([C@@H]3CCCNC3)nc3cc(N4CCC(N5CCN(C)CC5)CC4)c(Cl)cc3c2=O)cc1F` [(R)-1p], it took 13.1 µM to reach half-maximal cytotoxicity in data set [1] (CC50 at 72 h). For the same molecule, the log reduction at 10 µM in data set [2] came to 2.5.
As for `COc1c(F)cc(-n2c([C@@H]3CCCNC3)nc3cc(N(C)CCN(C)C)c(Cl)cc3c2=O)cc1F` [(R)-1q], it took 26.6 µM to reach half-maximal cytotoxicity in data set [1] (CC50 at 72 h). Further, the log reduction at 10 µM in data set [2] came to 0.6.
In turn, `CC(C)N1CCN(c2cc3nc([C@@H]4CCCNC4)n(C)c(=O)c3cc2Cl)CC1` [(R)-1r] registered a CC50 at 72 h in data set [1] above 40 µM. The log reduction at 10 µM in data set [2] was found to be 0.5.
The like results for `CC(C)N1CCN(c2cc3nc([C@@H]4CCCNC4)n(-c4ccccc4)c(=O)c3cc2Cl)CC1` [(R)-1s] were, in that order, above 40 µM and 0.9.
For the molecule `COc1ccc(-n2c([C@@H]3CCCNC3)nc3cc(N4CCN(C(C)C)CC4)c(Cl)cc3c2=O)cc1` [(R)-1t], in data set [1], it took 29.3 µM to reach half-maximal cytotoxicity (CC50 at 72 h). In addition, the log reduction at 10 µM in data set [2] worked out at 1.4.
For `CC(C)N1CCN(c2cc3nc([C@@H]4CCCNC4)n(-c4ccc(F)cc4)c(=O)c3cc2Cl)CC1` [(R)-1u] the same measures were 23.8 µM and 2.1.
For `CC(C)N1CCN(c2cc3nc([C@@H]4CCCNC4)n(-c4ccc(Cl)cc4)c(=O)c3cc2Cl)CC1` [(R)-1v] the same measures were 14.2 µM and 3.4.
For `CC(C)N1CCN(c2cc3nc([C@@H]4CCCNC4)n(-c4cccc(Cl)c4)c(=O)c3cc2Cl)CC1` [(R)-1w] the same measures were 18 µM and 2.7.
Consider `CC(C)N1CCN(c2cc3nc([C@H]4CCCCN4)n(-c4ccc(Cl)cc4)c(=O)c3cc2Cl)CC1` [(R)-1x], for which, in data set [1], half-maximal cytotoxicity (CC50 at 72 h) was put at 12 µM. For the same molecule, the log reduction at 10 µM in data set [2] amounted to 5.2.
For `COc1c(F)cc(-n2c([C@@H]3CCCN(C)C3)nc3cc(N4CCN(C(C)C)CC4)c(Cl)cc3c2=O)cc1F` [(R)-1y], in data set [1], the CC50 at 72 h worked out at 23.6 µM. In addition, the log reduction at 10 µM in data set [2] is 1.3.
In the case of `COc1c(F)cc(-n2c([C@H]3CCCCN3C)nc3cc(N4CCN(C(C)C)CC4)c(Cl)cc3c2=O)cc1F` [(R)-1z], the CC50 at 72 h in data set [1] was above 40 µM. Besides, the log reduction at 10 µM in data set [2] came to 0.4.
Turning to `COc1c(F)cc(-n2c([C@@H]3CCCN3)nc3cc(N4CCN(C)CC4)c(F)cc3c2=O)cc1F` [(S)-1a], in data set [1], the CC50 at 72 h was above 40 µM. Besides, the log reduction at 10 µM in data set [2] amounted to 0.3.
For `COc1c(F)cc(-n2c([C@@H]3CCCN3)nc3cc(N4CCN(C(C)C)CC4)c(F)cc3c2=O)cc1F` [(S)-1b] the same measures were above 40 µM and 0.64.
`COc1c(F)cc(-n2c([C@@H]3CCCN3)nc3cc(N4CCN(C)CC4)c(Cl)cc3c2=O)cc1F` [(S)-1c]: in data set [1], the CC50 at 72 h is above 40 µM. The log reduction at 10 µM in data set [2] is 1.
For `COc1c(F)cc(-n2c([C@@H]3CCCN3)nc3cc(N4CCN(C(C)C)CC4)c(Cl)cc3c2=O)cc1F` [(S)-1d] the same measures were above 40 µM and 1.3.
Molecule `COc1c(F)cc(-n2c([C@@H]3CCCN3)nc3cc(N4CCNCC4)c(Cl)cc3c2=O)cc1F` [(S)-1e] registered a 50% cytotoxic concentration (CC50) at 72 h in data set [1] of 22.8 µM. Further, the log reduction at 10 µM in data set [2] is 1.6.
The like results for `COc1c(F)cc(-n2c([C@@H]3CCN3)nc3cc(N4CCN(C(C)C)CC4)c(Cl)cc3c2=O)cc1F` [(S)-1f] were, in that order, above 40 µM and 0.
The like results for `COc1c(F)cc(-n2c([C@H]3CCCNC3)nc3cc(N4CCN(C(C)C)CC4)c(Cl)cc3c2=O)cc1F` [(S)-1g] were, in that order, 11.7 µM and 2.9.
`COc1ccc(-n2c([C@H]3CCCN3)nc3c(C)cc([N+](=O)[O-])cc3c2=O)cc1` [BDGR-49, reference compound]: the log reduction at 10 µM in data set [2] amounted to 0.
